Measured values taken from US20240294551A1 (AMGEN INC., priority 2022, published 2024).
Read-outs that look alike come from different tables or passages of the source.

Key:
[1] = molecular target: His-tagged KRAS G12D protein (Homo sapiens (Human), UniProt P01116, G12D); assay: KRAS G12D TR-FRET Assay; format: binding; conditions: read-out: KRAS G12D Binding IC50
Procedure, shortened: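 Each incubation ran at room temperature: enzyme with compound for 30 minutes, peptide for one hour, and detection reagents (0.4 nM europium anti-6×His, 5 nM streptavidin-d2) for one hour more. Protein and peptide stocks were each diluted to 20 nM before addition.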

[2] = molecular target: GDP-bound KRAS protein (aa 1-169), containing both G12D and C118A amino acid substitutions (Homo sapiens (Human), UniProt P01116, C118A/G12D); assay: KRAS G12D Coupled Nucleotide Exchange Assay; format: biochemical; conditions: read-out: KRAS G12D Coupled Exchange IC50
GDP-bound KRAS protein (aa 1-169), containing both G12D and C118A amino acid substitutions, sequence (P01116 other isoform, or with tags, fused parts or gaps G12D/C118A): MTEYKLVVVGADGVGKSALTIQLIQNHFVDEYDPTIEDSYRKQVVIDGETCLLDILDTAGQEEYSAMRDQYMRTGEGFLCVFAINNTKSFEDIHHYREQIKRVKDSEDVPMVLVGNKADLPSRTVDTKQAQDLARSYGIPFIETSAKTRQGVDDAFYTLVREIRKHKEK

[3] = system: Phosphorylation of ERK1/2 in AsPC-1 cells; assay: Phospho-ERK1/2 MSD Assay; format: cell-based, human; conditions: read-out: 2 h p-ERK (AsPC-1 cells), IC50
Procedure, shortened: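 Read-out: MSD electrochemiluminescent detection of phosphorylated ERK1/2 in whole-cell lysates, fitted to a 4-parameter logistic curve for IC50. Prior to lysis, AsPC-1 cells (25,000 per well) received a 2 h compound dose-response at 37 °C.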

[4] = system: p-ERK in PANC 04.03 tumor-bearing mice; assay: Tumor Pharmacodynamic Assay (p-ERK inhibition in PANC 04.03 tumors); format: in vivo; conditions: Mus musculus; PANC 04.03 tumor-bearing female athymic nude mice; single oral dose 100 mg/kg; tumors harvested 2 hr later; relative to vehicle group
Protocol: Tumor Pharmacodynamic Assays
Inhibitor pharmacodynamic effects were assessed in PANC 04.03 tumor-bearing mice. PANC 04.03 tumor cells (5.0E+06 cells) were injected subcutaneously into the flank of female athymic nude mice in a mixture with Matrigel (BD Bioscience). Mice received a single oral dose of either vehicle or inhibitor (100 mg/kg) when the average tumor size reached -300-600 mm^3 (n=3/group) and harvested 2 hours later. Tumor samples were collected, snap frozen, and processed for analysis by pulverizing with a cryoPREP® Dry Impactor (Covaris). Pulverized samples were resuspended in RIPA lysis buffer containing protease and phosphatase inhibitors and homogenized. Cleared lysates were analyzed using phospho-ERK1/2 and total ERK1/2 whole cell lysate kits (Meso Scale Discovery) according to the manufacturer's protocol. Phospho-ERK1/2 signal was normalized to total ERK1/2 signal for a given sample, and percent inhibition of p-ERK was calculated relative to the vehicle group.

AsPC-1 cells = assay: AsPC-1 CTG Assay (CellTiter-Glo cell viability); format: cell-based, human; conditions: AsPC-1, 72 h, first value of the cell, read-out: G12D/C/V Cell Proliferation CTG (72 h) AsPC-1
Procedure, shortened: (§1)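 IC50 values derive from 4-parameter logistic fits of CellTiter-Glo luminescence, expressed relative to DMSO. Compound dilution series were applied to overnight-seeded AsPC-1 or SW620 cells (RPMI 1640, 10% FBS) for 72 h at 37 °C, 5% CO2.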

SW620 cells = assay: SW620 CTG Assay (CellTiter-Glo cell viability); format: cell-based, human; conditions: SW620, 72 h, third value of the cell, read-out: G12D/C/V Cell Proliferation CTG (72 h) SW620
Procedure, shortened: as §1

MIA PaCa-2 cells = assay: MIA PaCa-2 CTG Assay (CellTiter-Glo cell viability); format: cell-based, human; conditions: Mia PaCa-2, 72 h, second value of the cell, read-out: G12D/C/V Cell Proliferation CTG (72 h) Mia PaCa-2
Procedure, shortened: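 IC50 values come from a 4-parameter logistic fit of CellTiter-Glo luminescence, normalized to DMSO control, after 72 h compound exposure at 37° C, 5% CO2. Cells grew in RPMI 1640 plus 10% FBS and were seeded at 1.67E+04 cells/mL one night before dosing.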

His-tagged KRAS G12D protein, sequence (P01116 other isoform, or with tags, fused parts or gaps G12D): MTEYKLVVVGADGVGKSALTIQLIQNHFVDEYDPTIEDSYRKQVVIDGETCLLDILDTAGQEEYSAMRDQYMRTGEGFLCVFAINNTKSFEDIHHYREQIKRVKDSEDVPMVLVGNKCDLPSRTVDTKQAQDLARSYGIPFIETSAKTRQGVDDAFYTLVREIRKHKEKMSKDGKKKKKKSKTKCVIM

Work on `C[C@@]12CCCN(C1)c1nc(OC[C@@]34CCCN3C[C@H](F)C4)nc3c(F)c(ncc13)-c1cccc3ccc(F)c(c13)CCCC(=O)N2` [Example 7, (15R)-22,31-Difluoro-8-(((2R,7aS)-2-fluorotetrahydro-1H-pyrrolo[1,2-a]pyrrol-7a(5H)-yl)methoxy)-15-methyl-3,7,9,11,16-pentaazahexacyclo[19.7.1.1˜2,6˜.1˜11,15˜.0˜5,10˜.0˜25,29˜]hentriaconta-1(28),2(31),3,5,7,9,21,23,25(29),26-decaen-17-one bis(2,2,2-trifluoroacetate)] yielded an IC50 [1] of 15 nM, an IC50 [2] of 15 nM and an IC50 ([3]; Homo sapiens, ASPC1, 2 h) of 260 nM. It also gave an inhibition in vivo at 100 mg/kg [4] of 21%.

For `Fc1c2ncc3c(nc(OC[C@@]45CCCN4C[C@H](F)C5)nc13)N1CCC[C@@](F)(COCCCCc3c(Cl)cc4[nH]ncc4c3-2)C1` [Example 151, (17S)-9-chloro-17,30-difluoro-24-(((2R,7aS)-2-fluorotetrahydro-1H-pyrrolo[1,2-a]pyrrol-7a(5H)-yl)methoxy)-15-oxa-5,6,21,23,25,29-hexaazahexacyclo[24.3.1.1~17,21~.0~2,10~.0~3,7~.0~22,27~]hentriaconta-1(30),2,4,7,9,22,24,26,28-nonaene], the IC50 [1] was 4 nM, the IC50 [2] was 2 nM and the IC50 ([3]; Homo sapiens, ASPC1, 2 h) was 13 nM. The IC50 (AsPC-1 cells; Homo sapiens, ASPC1, 72 h) was 200 nM, the IC50 (SW620 cells; Homo sapiens, SW-620) was 38.7 nM and the IC50 (MIA PaCa-2 cells; Homo sapiens) was 70 nM.

In the case of `C[C@@]12CCCCN(C1)c1nc(OC[C@@]34CCCN3C[C@H](F)C4)nc3c(F)c(ncc13)-c1c(c(Cl)cc3[nH]ncc13)CCCCC(=O)N2` [Example 166, (26R)-18-chloro-32-fluoro-4-(((2R,7aS)-2-fluorotetrahydro-1H-pyrrolo[1,2-a]pyrrol-7a(5H)-yl)methoxy)-26-methyl-1,3,5,9,14,15,25-heptaazahexacyclo [24.4.1.1~6,10~.0~2,7~.0~11,19~.0~12,16~]dotriaconta-2,4,6,8,10(32),11,13,16,18-nonaen-24-one], the IC50 [1] is reported as 5 nM, the IC50 [2] is reported as 3 nM and the IC50 ([3]; Homo sapiens, ASPC1, 2 h) is reported as 16.2 nM. It also gave an IC50 (AsPC-1 cells; Homo sapiens, ASPC1, 72 h) of 68 nM, an IC50 (MIA PaCa-2 cells; Homo sapiens) of 90 nM and an inhibition in vivo at 100 mg/kg [4] of 63%.

`O=C1OCCCc2c(Cl)cc3[nH]ncc3c2-c2ncc3c(nc(OC[C@@]45CCCN4C[C@H](F)C5)nc3c2F)N2CC[C@H]3CCN1[C@H]3C2` [Example 177, (28S,32R)-18-chloro-33-fluoro-4-(((2R,7aS)-2-fluorotetrahydro-1H-pyrrolo[1,2-a]pyrrol-7a(5H)-yl)methoxy)-23-oxa-1,3,5,9,14,15,25-heptaazaheptacyclo[23.5.2.1~6,10~.0~2,7~.0~11,19~.0~12,16~.0~28,32~]tritriaconta-2,4,6,8,10(33),11,13,16,18-nonaen-24-one] was tested, and the IC50 [1] was 3 nM, the IC50 [2] was 3 nM and the IC50 ([3]; Homo sapiens, ASPC1, 2 h) was 16.3 nM. For the same compound, the IC50 (AsPC-1 cells; Homo sapiens, ASPC1, 72 h) was 178 nM, the IC50 (SW620 cells; Homo sapiens, SW-620) was 39 nM and the IC50 (MIA PaCa-2 cells; Homo sapiens) was 100 nM.

In the case of `Cc1cc2[nH]ncc2c2c1CCCOC(=O)O[C@]1(C)COCCN(C1)c1nc(OC[C@@H]3CCCN3C)nc3c(F)c-2ncc13` [Example 183, (26S)-32-fluoro-18,26-dimethyl-4-(((2S)-1-methyl-2-pyrrolidinyl)methoxy)-23,25,28-trioxa-1,3,5,9,14,15-hexaazahexacyclo[24.4.1.1~6,10~.0~2,7~.0~11,19~.0~12,16~]dotriaconta-2,4,6,8,10(32),11,13,16,18-nonaen-24-one], the IC50 [1] is reported as 8 nM, the IC50 [2] is reported as 4 nM and the IC50 ([3]; Homo sapiens, ASPC1, 2 h) is reported as 49.3 nM. It also gave an IC50 (AsPC-1 cells; Homo sapiens, ASPC1, 72 h) of 164 nM, an IC50 (SW620 cells; Homo sapiens, SW-620) of 44 nM and an IC50 (MIA PaCa-2 cells; Homo sapiens) of 50 nM.

For `O=C1OCCCc2c(Cl)cc3[nH]ncc3c2-c2ncc3c(nc(OCC45CCCN4CCC5)nc3c2F)N2CCOC[C@H](C2)O1` [Example 198, (26S)-18-chloro-32-fluoro-4-(tetrahydro-1H-pyrrolo[1,2-a]pyrrol-7a(5H)-ylmethoxy)-23,25,28-trioxa-1,3,5,9,14,15-hexaazahexacyclo[24.4.1.1~6,10~.0~2,7~.0~11,19~.0~12,16~]dotriaconta-2,4,6,8,10(32),11,13,16,18-nonaen-24-one], the IC50 [1] was 2 nM, the IC50 [2] was 1 nM and the IC50 ([3]; Homo sapiens, ASPC1, 2 h) was 8.1 nM. The IC50 (AsPC-1 cells; Homo sapiens, ASPC1, 72 h) was 108 nM, the IC50 (SW620 cells; Homo sapiens, SW-620) was 14 nM and the IC50 (MIA PaCa-2 cells; Homo sapiens) was 16 nM.

`Fc1cc2[nH]ncc2c2c1CCCCOC[C@H]1CCCCN(C1)c1nc(OC[C@@]34CCCN3C[C@H](F)C4)nc3c(F)c-2ncc13` [Example 240, (26S)-18,32-difluoro-4-(((2R,7aS)-2-fluorotetrahydro-1H-pyrrolo[1,2-a]pyrrol-7a(5H)-yl)methoxy)-24-oxa-1,3,5,9,14,15-hexaazahexacyclo[24.4.1.1~6, 10~.0~2,7~.0~11,19~.0~12,16~]dotriaconta-2,4,6(32),7,9,11,13,16,18-nonaene] showed an IC50 [1] of 3 nM, an IC50 [2] of 2 nM and an IC50 ([3]; Homo sapiens, ASPC1, 2 h) of 21.9 nM. The IC50 (AsPC-1 cells; Homo sapiens, ASPC1, 72 h) was 230 nM, the IC50 (SW620 cells; Homo sapiens, SW-620) was 80 nM and the IC50 (MIA PaCa-2 cells; Homo sapiens) was 140 nM.

For `Fc1c2ncc3c(nc(OC[C@@]45CCCN4C[C@H](F)C5)nc13)N1CCC[C@]3(C1)C[C@H](C3)OCCCCc1c(Cl)cc3[nH]ncc3c1-2` [Example 260, (1S,3R)-10-Chloro-32-fluoro-24-(((2R,7aS)-2-fluorotetrahydro-1H-pyrrolo[1,2-a]pyrrol-7a(5H)-yl)methoxy)-4-oxa-13,14,19,23,25,27-hexaazaheptacyclo[25.3.1.1˜1,3˜.1˜18,22˜.0˜9,17˜.0˜12,16˜.0˜21,26˜]tritriaconta-9,11,14,16,18(32),19,21,23,25-nonaene bis(2,2,2-trifluoroacetate)], the IC50 [1] was 4 nM, the IC50 [2] was 2 nM and the IC50 ([3]; 2 h) was 3.2 nM. It also gave an IC50 (AsPC-1 cells) of 40 nM, an IC50 (SW620 cells) of 8 nM and an IC50 (MIA PaCa-2 cells) of 26 nM.

`O=C1OCCCc2c(Cl)cc3[nH]ncc3c2-c2ncc3c(nc(OC[C@@]45CCCN4C[C@H](F)C5)nc3c2F)N2CCOC[C@](CF)(C2)O1` [Example 311, (26S)-18-chloro-32-fluoro-26-(fluoromethyl)-4-(((2R,7aS)-2-fluorotetrahydro-1H-pyrrolo[1,2-a]pyrrol-7a(5H)-yl)methoxy)-23,25,28-trioxa-1,3,5,9,14,15-hexaazahexacyclo[24.4.1.1~6,10~.0~2,7~.0~11,19~.0~12,16~]dotriaconta-2,4,6(32),7,9,11,13,16,18-nonaen-24-one] showed an IC50 [1] of 5 nM, an IC50 [2] of 3 nM and an IC50 ([3]; Homo sapiens, ASPC1, 2 h) of 4.2 nM. The IC50 (AsPC-1 cells; Homo sapiens, ASPC1, 72 h) was 36 nM, the IC50 (SW620 cells; Homo sapiens, SW-620) was 6 nM and the IC50 (MIA PaCa-2 cells; Homo sapiens) was 7 nM.

In the case of `O=C1OCCc2c(Cl)cc3[nH]ncc3c2-c2ncc3c(nc(OC[C@@]45CCCN4C[C@H](F)C5)nc3c2F)N2CCOC[C@]3(C2)C[C@H](C3)O1` [Example 316, (1R,3R)-10-chloro-33-fluoro-24-(((2R,7aS)-2-fluorotetrahydro-1H-pyrrolo[1,2-a]pyrrol-7a(5H)-yl)methoxy)-4,6,30-trioxa-13,14,19,23,25,27-hexaazaheptacyclo[25.4.1.1~1,3~.1~18,22~.0~9,17~.0~12,16~.0~21,26~]tetratriaconta-9,11,14,16,18(33),19,21,23,25-nonaen-5-one], the IC50 [1] is reported as 4 nM, the IC50 [2] is reported as 3 nM and the IC50 ([3]; Homo sapiens, ASPC1, 2 h) is reported as 6.7 nM. It also gave an IC50 (AsPC-1 cells; Homo sapiens, ASPC1, 72 h) of 54 nM, an IC50 (SW620 cells; Homo sapiens, SW-620) of 10 nM and an IC50 (MIA PaCa-2 cells; Homo sapiens) of 13 nM.
